Source: patent US9201014B2, “Development of photostable near-IR cyanine dyes for in vivo imaging” (National University of Singapore, priority 2010, dated 2015)

Columns and labels:
[1] = Primary screening of photostability of the CyNA library (time-course fluorescence, 8 h); type: physicochemical; design: F/Fo, fluorescent intensity at 8 hours vs 0 hours: unit: %; details: 10 μM in HEPES 100 mM pH 7.4, 2% DMSO
Method in brief: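 CyNA dyes at 10 μM in 100 mM HEPES pH 7.4 with 2% DMSO irradiated by xenon lamp for 8 h. Fluorescence (ex/em 790-820 nm) read every 10 min; stability given as F8h/Fo.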

[2] = system: primary mouse peritoneal cavity cells; test: Validation of macrophage selectivity (peritoneal cells, Raw 264.7, splenocytes); type: cell-based; details: 1 μM, 1 hour
Experimental: To validate the selectivity of CyNA-374, primary mouse peritoneal cavity cells were prepared. The identity of the mouse peritoneal cells was confirmed with CD11b macrophage antibody and flow cytometry. Next, the mouse peritoneal cells, Raw 264.7 cells and splenocytes were seeded in parallel. The following day, the cells were incubated with 1 μM CyNA-374 for 1 hour, then analyzed immediately using fluorescence microscopy.

[3] = Absorbance and fluorescence maximum wavelengths and quantum yields of the CyNA library; type: physicochemical; details: for λabs, absorbance maximum wavelength / λem, fluorescence maximum wavelength: CyNA library; for φ, quantum yield: in DMSO, Cardiogreen as standard
Method in brief: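 Absorption and emission maxima and quantum yields of the 80-member amine-derivatized CyNA library were measured on a plate spectrophotometer.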

[4] = system: mouse macrophage Raw 264.7 cell line; test: High-throughput cell imaging-based screen of CyNA library; details: Raw 264.7 vs mouse splenocytes
Experimental: In order to identify CyNA probes that could selectively stain mouse macrophage Raw 264.7 cell line (a mouse leukemic monocyte macrophage cell line), a library of CyNA compounds was assayed in a high-throughput cell imaging-based screen. The cell images were recorded using an automated imaging microscope system, IMAGEXPRESS MICRO™, and the fluorescent images were analyzed by cellular fluorescence intensity using METAXPRESS® image processing software.

[5] = system: M1 macrophages (LPS-activated Raw 264.7 cells); test: Staining of activated (M1) macrophages; type: cell-based, mouse; details: 1 μM, 1 hour
Experimental: To determine if CyNA-374 could stain activated macrophages, Raw 264.7 cells were activated to M1 macrophages. Raw 264.7 cells were plated at 5×10^6 cells/well and allowed to adhere. In some experiments, the cells were then starved for 12 hours, meaning that cells were washed with phosphate-buffered saline (PBS) and incubated in DMEM supplemented with 1% penicillin/streptomycin for 12 hours, but without 10% FBS. After 12 hours, the cells were exposed to 60 ng/mL LPS and, at the 24-hour time point, the supernatant from the cells stimulated by LPS was collected for measurement of NO2 using the Griess reaction. The unstimulated Raw 264.7 cells produced approximately 8.5 μmol/L NO2, while the stimulated Raw 264.7 (or M1) cells produced approximately 45 μmol/L NO2. The M1 cells were seeded in parallel with the unactivated Raw 264.7 cells and the splenocytes. The cells were incubated with 1 μM CyNA-374 for 1 hour, then analyzed using fluorescence microscopy.

[6] = Rates of photobleaching of CyNA-414 and CyN-414; type: physicochemical; details: for k, rate of photobleaching: 10 μM in 10 mM HEPES pH 7.4, 1% DMSO, xenon flash lamp, 12 hours
Experimental: 10-μM solutions of CyNA-414 and CyN-414 in 10 mM HEPES buffer (pH 7.4) containing 1% DMSO were placed in a 96-well black plate, and fluorescence intensity measurements (n=3) were recorded every 10 minutes for a total period of 12 hours (excitation-emission: 640-750 nm for CyN-414, and 790-820 nm for CyNA-414) under a xenon flash lamp. Values were fitted to a non-linear regression one-phase exponential decay (GraphPad Prism 5.0).

[7] = Absorbance/fluorescence maxima, quantum yields and extinction coefficients of CyN compounds; type: physicochemical
Experimental: The absorbance and fluorescence maximum wavelengths and extinction coefficients of CyN-111, 165, 272 and 295 were measured using 10-μM solutions of CyN-111, CyN-165, CyN-272 or CyN-295 in 10 mM HEPES buffer (pH 7.4) containing 1% DMSO. Quantum yields were measured in DMSO, using Cardiogreen as a standard (φ: 0.13, in DMSO).

[8] = Time-course fluorescence measurements (photobleaching rate constants) of CyN and CyNA derivatives in HEPES buffer; type: physicochemical; details: for k, rate of photobleaching: 10 μM in 10 mM HEPES pH 7.4, 1% DMSO, pseudo-first order; for kCyN/kCyNA: ratio of photobleaching rate constants, aqueous media
Experimental: Values were fitted to a non-linear regression one-phase exponential decay (GraphPad Prism 5.0). Detailed statistics for the one-phase decay analysis of the CyN compounds and 1 follow: Photodecomposition rate constants were determined by plotting -ln(F/F0) vs time, and calculated using a pseudo-first order rate equation. See […]., et al., Photochem. Photobiol. 2000, 72, 392-398.

[9] = Photobleaching of CyNE790 and ICG-sulfo-OSu in PBS; type: physicochemical; details: for maximum relative fluorescence units (rfu): photobleaching experiments
Source text: CyNE790 was also compared to ICG-sulfo-OSu, a commercially available succinimidyl ester of ICG (for chemical structures of CyNE790 and ICG-sulfo-OSu, see FIG. 8).

[10] = Formation of aggregates: absorbance spectrum in DMSO vs PBS; type: physicochemical; details: for formation of aggregates in aqueous solution: spectral profile DMSO vs PBS
[11] = Photophysical properties of CyNE790 and ICG-sulfo-OSu; type: physicochemical; details: for Quantum Yield (DMSO): ICG as standard; for Quantum Yield (aqueous media) / ε (aqueous media): PBS pH 7.3, 0.1% DMSO
Experimental: FIG. 7A is an absorbance spectrum of 10-μM solutions of CyNA-414, CyNE790, ICG and ICG-sulfo-OSu in DMSO and PBS.
FIG. […]
After corroborating the spectral properties of CyNE790 as a fluorescent NIR dye, its applicability for protein conjugation was assessed by comparing CyNE790 to ICG-sulfo-OSu, the commercially available succinidimyl ester of ICG. […] However, the application of ICG to molecular imaging has been limited because its fluorescence is drastically quenched after protein conjugation.

[12] = Fluorescence and photostability of dye-labeled EGFR-IgG2a antibodies; type: physicochemical; details: conjugated to EGFR-IgG2a, vs ICG label
Experimental: To compare CyNE790 and ICG-sulfo-OSu for in vivo imaging studies, each reactive ester was conjugated to a monoclonal anti-epidermal growth factor receptor (EGFR) antibody.
100 μg of anti-EGFR-IgG2a were washed with PBS using a Microcon 3K filter (Millipore), and re-suspended in 100 μL of Na2CO3—NaHCO3 buffer (pH 9.2). 20 equiv of CyNE790 or ICG-sulfo-OSu (typically 1.0-1.2 μL of a 10 mM solution in DMSO) were added and the whole mixture was shaken in the dark for 2 hours. The excess dye was removed by washing with PBS (3×500 μL) using a Microcon 3K filter (Millipore) (3 rounds at 14,000 rpm at 4° C. for 60 min).
[…] in PBS (pH 7.3) were fixed in a glass coverslide, and irradiated with a diode laser (95 mW, 740 nm, time frame: 500 ms, no delay). Emission was recorded with a NIR-enhanced CCD camera (Andor Technology) adapted to an Eclipse Ti-U microscope (40× magnification, filter cube 750/800), and images were processed using the software NIS-Elements 3.10. The resulting values are represented as means (n=3), and fitted to a non-linear regression one-phase exponential decay (GraphPad Prism 5.0).

[13] = type: physicochemical
Experimental: As a primary evaluation of photo stability, the decrease in fluorescence intensity of the 80 CyNA compounds was measured (see Table 2). The average decrease in fluorescence intensity after 8 hours of irradiation by a xenon lamp was approximately 18%. A subset of the most photostable compounds (i.e., F/Fo reported in Table 2 was greater than or equal to 95) was examined under stronger irradiation in various buffers.
10-μM CyNA solutions in 10 mM HEPES buffer (pH 7.4) or PBS (pH 7.3) containing 1% DMSO were placed in a 96-well black plate, and irradiated for periods of 15 minutes up to 2 hours with a high-intensity UV lamp (100 W, 365 nm) at a 2-cm distance. Values are represented as means (n=2), and fitted to a non-linear regression one-phase exponential decay (GraphPad Prism 5.0). Results not shown.

[14] = in DMSO; cited from earlier work
[15] = 10 μM in 10 mM HEPES pH 7.4, 1% DMSO

CCCN1/C(=C/C=C2\CCCC(/C=C/C3=[N+](CCC)c4ccccc4C3(C)C)=C2N(Cc2ccccc2)C(C)=O)C(C)(C)c2ccccc21 [CyNA-374]
F/Fo, fluorescent intensity at 8 hours vs 0 hours [1]: 94% | max RFU, maximum relative fluorescence units [1]: 1224.6 | staining by fluorescence microscopy [2]: stained both the Raw 264.7 cells and the mouse peritoneal cells | λabs, absorbance maximum wavelength [3]: 806 nm | λem, fluorescence maximum wavelength [3]: 821 nm | φ, quantum yield [3]: 0.14 | selective staining in cell imaging screen [4]: selectively stained mouse macrophages, but not mouse splenocytes | staining of activated macrophages [5]: stained both the unactivated Raw 264.7 cells and the M1 cells

CCCN1/C(=C/C=C2\CCCC(/C=C/C3=[N+](CCC)c4ccccc4C3(C)C)=C2NCCCN2CCCCC2C)C(C)(C)c2ccccc21.[I-] (stereo not shown) [CyN-414]
k, rate of photobleaching [6]: 1.75e-05 s⁻¹

CCCN1/C(=C/C=C2\CCCC(/C=C/C3=[N+](CCC)c4ccccc4C3(C)C)=C2NCCCOC)C(C)(C)c2ccccc21.[I-] [CyN-165]
ε, extinction coefficient [7, 15]: 0.352 · 10^5 cm^−1M^−1 | λabs [7, 15]: 640 nm | λem [7, 15]: 762 nm | φ, quantum yield ([7]; in DMSO, Cardiogreen as standard): 0.37 | k, rate of photobleaching [8]: 3.49e-05 s⁻¹

CCCN1/C(=C/C=C2\CCCC(/C=C/C3=[N+](CCC)c4ccccc4C3(C)C)=C2N(CC)C(C)=O)C(C)(C)c2ccccc21.[I-] [CyNA-295]
F/Fo, fluorescent intensity at 8 hours vs 0 hours [1]: 100 | max RFU, maximum relative fluorescence units [1]: 698.6 | λabs, absorbance maximum wavelength [3]: 806 nm | λem, fluorescence maximum wavelength [3]: 820 nm | φ, quantum yield [3]: 0.11 | k, rate of photobleaching [8]: 3.81e-06 s⁻¹ | kCyN/kCyNA [8]: 8

CCCN1/C(=C/C=C2\CCCC(/C=C/C3=[N+](CCC)c4ccccc4C3(C)C)=C2N(CCCN2CCCCC2C)C(=O)CCCC(=O)ON2C(=O)CCC2=O)C(C)(C)c2ccccc21 (stereo not shown) [CyNE790]
photostability relative to ICG-sulfo-OSu ([9]; 10 μM in PBS pH 7.3, 1% DMSO): 15 fold | maximum relative fluorescence units (rfu) [9]: 708 rfu | formation of aggregates in aqueous solution [10]: little to no formation of aggregates | fluorescent properties compared to ICG and ICG-sulfo-OSu ([11]; 10 μM in PBS, 1% DMSO, excitation 760 nm, FIG. 7B): superior fluorescent properties to both ICG and ICG-sulfo-OSu | Quantum Yield (DMSO) [11]: 13% | Quantum Yield (aqueous media) [11]: 3.3% | ε (aqueous media) [11]: 108,000 M^−1 · cm^−1 | fluorescence intensity and photostability after protein conjugation [12]: maintains its superior fluorescence intensity and photostability

CCCN1/C(=C/C=C2\CCCC(/C=C/C3=[N+](CCC)c4ccccc4C3(C)C)=C2N(CCc2ccccn2)C(C)=O)C(C)(C)c2ccccc21.[I-] [CyNA-111]
F/Fo, fluorescent intensity at 8 hours vs 0 hours [1]: 96 | max RFU, maximum relative fluorescence units [1]: 565.6 | λabs, absorbance maximum wavelength [3]: 804 nm | λem, fluorescence maximum wavelength [3]: 818 nm | φ, quantum yield [3]: 0.11 | k, rate of photobleaching [8]: 3.41e-06 s⁻¹ | kCyN/kCyNA [8]: 12

CC1(C)C(/C=C/C=C/C=C/C=C2\N(CCCCS(=O)(=O)[O-])c3ccc4ccccc4c3C2(C)C)=[N+](CCCCCC(=O)ON2C(=O)CC(S(=O)(=O)[O-])C2=O)c2ccc3ccccc3c21.[Na+] (stereo not shown) [ICG-sulfo-OSu, reference compound]
maximum relative fluorescence units (rfu) [9]: 136 rfu | absorbance maximum in DMSO ([10]; 10 μM, DMSO): 780 nm | absorbance maximum in PBS ([10]; 10 μM, PBS): 695 nm | formation of aggregates in aqueous solution [10]: formation of aggregates | Quantum Yield (DMSO) [11]: 12% | Quantum Yield (aqueous media) [11]: 0.4% | ε (aqueous media) [11]: 42,000 M^−1 · cm^−1

CCCN1/C(=C/C=C2\CCCC(/C=C/C3=[N+](CCC)c4ccccc4C3(C)C)=C2N(CCCN2CCCCC2C)C(C)=O)C(C)(C)c2ccccc21.[I-] (stereo not shown) [CyNA-414]
F/Fo, fluorescent intensity at 8 hours vs 0 hours [1]: 100 | max RFU, maximum relative fluorescence units [1]: 925.5 | λabs, absorbance maximum wavelength [3]: 804 nm | λem, fluorescence maximum wavelength [3]: 819 nm | φ, quantum yield [3]: 0.13 | k, rate of photobleaching [6]: 2.5e-06 s⁻¹ | kCyN/kCyNA ([6]; CyN-414 vs CyNA-414): 7 | photostability under stronger irradiation in various buffers [13]: best photostability

CC1(C)C(/C=C/C=C/C=C/C=C2\N(CCCCS(=O)(=O)[O-])c3ccc4ccccc4c3C2(C)C)=[N+](CCCCS(=O)(=O)[O-])c2ccc3ccccc3c21.[Na+] [Cardiogreen]
φ of quantum yield standard [14]: 0.13
